Measured values published in patent publication EP1561465A2, “Methods of use of fluoroquinolone compounds against bacteria” (LG Life Sciences, Ltd., priority 1999, dated 2001).
≈ marks a conversion by molar mass, not a printed value. Read-outs that look alike come from different tables or passages of the source.

Assays:
Campylobacter jejuni = assay: MIC by agar dilution (NCCLS M7-A4), 288 enteropathogenic isolates, gemifloxacin and 15 other antimicrobials; conditions: for MIC (mg/L) Range: Campylobacter jejuni N= 91
Yersinia enterocolitica = assay: as above; assay type: cell-based; conditions: for MIC: Yersinia enterocolitica N= 22
Aeromonas spp. = assay: as above; assay type: cell-based; conditions: for MIC (mg/L) Range / MIC: Aeromonas spp. N= 16
Shigella spp. = assay: as above; assay type: cell-based
Protocol: [A. hydrophila (12), and A. sobria (4)], and 91 Campylobacter jejuni. […] The strains were stored in skimmed-milk at -80 °C until studied.
The plates were incubated aerobically at 35 °C for 24 h, except for Campylobacter jejuni, where a microaerophilic atmosphere was obtained by using Campy Pack (Becton Dickinson, Cockeysville, MD, USA), and incubation was for 48 h. All organisms were tested with an inoculum of ≅ 10^4 cfu/spot. MICs were defined as the lower antibiotic concentration with no visible growth.

Salmonella spp. = assay: as above; assay type: cell-based; conditions: for MIC (mg/L) Range: Salmonella spp. N= 106; for MIC: Salmonella
Hafnia alvei = assay: as above; assay type: cell-based; conditions: for MIC: Hafnia alvei N= 32
Enterobacter spp. = assay: MIC by agar dilution (NCCLS), 322 nosocomial Gram negative isolates, Athens 1998; assay type: cell-based
Streptococcus pneumoniae = assay: MIC by E-test (broth microdilution for gemifloxacin), 107 pneumococcal carrier isolates, Athens 1998; assay type: cell-based; conditions: Streptococcus pneumoniae, E-test; for MIC50: read-out: MIC50; for MIC90: read-out: MIC90
Protocol: Susceptibility testing was performed by agar dilution or epsilometer method (E-test), as recommended by the NCCLS. […] The susceptibility profiles of the strains were assessed using the Epsilometer method (E-test). The isolates were subdivided into two groups according to their penicillin susceptibility patterns (penicillin-susceptible and penicillin-intermediate.

Staphylococcus aureus = assay: MIC by agar macrodilution (NCCLS), 373 Gram positive isolates, Athens 1998; assay type: cell-based; conditions: Methicillin-susceptible Staphylococcus aureus (n = 85)
[1] = Campylobacter jejuni, read-out: MIC (mg/L) 50%
[2] = Campylobacter jejuni, read-out: MIC (mg/L) 90%
[3] = 24 h, read-out: MIC (mg/L) Range
[4] = read-out: MIC (mg/L) 50%, Salmonella spp. N= 106
[5] = read-out: MIC (mg/L) 90%, Salmonella spp. N= 106
[6] = Penicillin-intermediate S. pneumoniae (n = 24)
[7] = Penicillin-susceptible S. pneumoniae (n = 107)

With CO/N=C(\C(=O)N[C@@H]1C(=O)N2C(C(=O)O)=C(COC(C)=O)CS[C@H]12)c1csc(N)n1 [Cefotaxime, cefotaxime] the susceptible isolates (Campylobacter jejuni; C. jejuni, breakpoints) was 57%, the “MIC (mg/L) Range” value (Campylobacter jejuni) was 2 to 32 mg/L and the MIC (Campylobacter jejuni; [1]) was 8 mg/L (≈ 17.6 µM). The MIC (Campylobacter jejuni; [2]) was 16 mg/L (≈ 35.1 µM), the MIC (Yersinia enterocolitica; [3]) was 0.06 to 0.12 mg/L (≈ 0.132 to 0.263 µM) and the susceptible isolates (Yersinia enterocolitica; Yersinia enterocolitica, breakpoints) was 100%. The MIC (Yersinia enterocolitica; read-out: MIC (mg/L) 50%) was 0.06 mg/L (≈ 0.132 µM), the MIC (Yersinia enterocolitica; read-out: MIC (mg/L) 90%) was 0.06 mg/L (≈ 0.132 µM) and the “MIC (mg/L) Range” value (Aeromonas spp.) was no more than 0.015 to 0.12 mg/L. For the same compound, the susceptible isolates (Aeromonas spp.; Aeromonas spp., breakpoints) was 100%, the MIC (Aeromonas spp.; read-out: MIC (mg/L) 50%) was 0.03 mg/L (≈ 0.0659 µM) and the MIC (Aeromonas spp.; read-out: MIC (mg/L) 90%) was 0.12 mg/L (≈ 0.263 µM). The MIC (Shigella spp.; 24 h, Shigella spp. N= 21, read-out: MIC (mg/L) Range) was 0.015 to 0.03 mg/L (≈ 0.0329 to 0.0659 µM), the susceptible isolates (Shigella spp.; Shigella spp., breakpoints) was 100% and the MIC (Shigella spp.; read-out: MIC (mg/L) 50%, Shigella spp. N= 21) was no more than 0.015 mg/L. The MIC (Shigella spp.; read-out: MIC (mg/L) 90%, Shigella spp. N= 21) was 0.03 mg/L (≈ 0.0659 µM), the “MIC (mg/L) Range” value (Salmonella spp.) was 0.06 to 0.5 mg/L and the susceptible isolates (Salmonella spp.; Salmonella spp., breakpoints) was 100%. The MIC (Salmonella spp.; [4]) was 0.12 mg/L (≈ 0.263 µM), the MIC (Salmonella spp.; [5]) was 0.12 mg/L (≈ 0.263 µM) and the MIC (Hafnia alvei; [3]) was 0.12 to 0.5 mg/L (≈ 0.263 to 1.1 µM). It also gave a susceptible isolates (Hafnia alvei; Hafnia alvei, breakpoints) of 100%, an MIC (Hafnia alvei; read-out: MIC (mg/L) 50%) of 0.25 mg/L (≈ 0.549 µM) and an MIC (Hafnia alvei; read-out: MIC (mg/L) 90%) of 0.5 mg/L (≈ 1.1 µM).
With CC(C)(O/N=C(\C(=O)N[C@@H]1C(=O)N2C(C(=O)[O-])=C(C[n+]3ccccc3)CS[C@H]12)c1csc(N)n1)C(=O)O [Cetfazidime] the MIC50 (Enterobacter spp.; Enterobacter) was 1 µg/mL, the MIC90 (Enterobacter spp.; Enterobacter) was greater than 64 µg/mL and the “MIC distribution (µg/ml) 0.06” value (Enterobacter spp.; {}) was 1. For the same compound, the “MIC distribution (µg/ml) 0.25” value (Enterobacter spp.; {}) was 16, the “MIC distribution (µg/ml) 0.5” value (Enterobacter spp.; {}) was 3 and the “MIC distribution (µg/ml) 1” value (Enterobacter spp.; {}) was 2. The “MIC distribution (µg/ml) 2” value (Enterobacter spp.; {}) was 1, the “MIC distribution (µg/ml) 4” value (Enterobacter spp.; {}) was 0 and the “MIC distribution (µg/ml) 8” value (Enterobacter spp.; {}) was 2. The “MIC distribution (µg/ml) 16” value (Enterobacter spp.; {}) was 6, the “MIC distribution (μg/ml) 32” value (Enterobacter spp.; {}) was 3 and the “MIC distribution (μg/ml) 64” value (Enterobacter spp.; {}) was 2.
With CC[C@H]1OC(=O)[C@H](C)[C@@H](O[C@H]2C[C@@](C)(OC)[C@@H](O)[C@H](C)O2)[C@H](C)[C@@H](O[C@@H]2O[C@H](C)C[C@H](N(C)C)[C@H]2O)[C@](C)(OC)C[C@@H](C)C(=O)[C@H](C)[C@@H](O)[C@]1(C)O [Clarithromycin] the MIC50 (Streptococcus pneumoniae; [6]) was 0.094 µg/mL (≈ 0.126 µM), the MIC90 (Streptococcus pneumoniae; [6]) was no less than 256 µg/mL and the MIC50 (Streptococcus pneumoniae; [7]) was 0.094 µg/mL (≈ 0.126 µM). The MIC90 (Streptococcus pneumoniae; [7]) was 0.38 µg/mL (≈ 0.508 µM), the MIC50 (Staphylococcus aureus; read-out: MIC50) was 0.25 µg/mL (≈ 0.334 µM) and the MIC90 (Staphylococcus aureus; read-out: MIC90) was 1 µg/mL (≈ 1.34 µM).
C[C@H]1c2cccc(O)c2C(=O)C2=C(O)[C@]3(O)C(=O)C(C(N)=O)=C(O)[C@@H](N(C)C)[C@@H]3[C@@H](O)[C@@H]21 [Doxycycline, doxycycline] was tested, and the “Rates of non-susceptible microorganisms” value (Campylobacter jejuni; Campylobacter jejuni) was 40%, the “MIC (mg/L) Range” value (Campylobacter jejuni) was 0.06 to 64 mg/L and the MIC (Campylobacter jejuni; [1]) was 16 mg/L (≈ 36 µM). For the same compound, the MIC (Campylobacter jejuni; [2]) was 32 mg/L (≈ 72 µM), the MIC (Yersinia enterocolitica; [3]) was 0.25 to 8 mg/L (≈ 0.563 to 18 µM) and the “Rates of non-susceptible microorganisms” value (Yersinia enterocolitica; Yersinia enterocolitica) was 5%. For the same compound, the MIC (Yersinia enterocolitica; read-out: MIC (mg/L) 50%) was 1 mg/L (≈ 2.25 µM), the MIC (Yersinia enterocolitica; read-out: MIC (mg/L) 90%) was 2 mg/L (≈ 4.5 µM) and the “MIC (mg/L) Range” value (Aeromonas spp.) was 0.25 to 4 mg/L. For the same compound, the MIC (Aeromonas spp.; read-out: MIC (mg/L) 50%) was 0.5 mg/L (≈ 1.13 µM), the MIC (Aeromonas spp.; read-out: MIC (mg/L) 90%) was 2 mg/L (≈ 4.5 µM) and the “Rates of non-susceptible microorganisms” value (Shigella spp.; Shigella spp.) was 43%. The MIC (Shigella spp.; Shigella, 24 h, read-out: MIC (mg/L) Range) was 0.5 to 32 mg/L (≈ 1.13 to 72 µM), the MIC (Shigella spp.; Shigella, read-out: MIC (mg/L) 50%) was 16 mg/L (≈ 36 µM) and the MIC (Shigella spp.; Shigella, read-out: MIC (mg/L) 90%) was 32 mg/L (≈ 72 µM). For the same compound, the “Rates of non-susceptible microorganisms” value (Salmonella spp.; Salmonella spp.) was 22%, the “MIC (mg/L) Range” value (Salmonella spp.) was 1 to 128 mg/L and the MIC (Salmonella spp.; [4]) was 2 mg/L (≈ 4.5 µM). The MIC (Salmonella spp.; [5]) was 16 mg/L (≈ 36 µM), the MIC (Hafnia alvei; [3]) was 1 to 16 mg/L (≈ 2.25 to 36 µM) and the “Rates of non-susceptible microorganisms” value (Hafnia alvei; Hafnia alvei) was 22%. It also gave an MIC (Hafnia alvei; read-out: MIC (mg/L) 50%) of 2 mg/L (≈ 4.5 µM) and an MIC (Hafnia alvei; read-out: MIC (mg/L) 90%) of 8 mg/L (≈ 18 µM).
